Patent publication US4496566A, “Naphthyridine derivatives” (Dainippon Pharmaceutical Co., Ltd., priority 1980, dated 1985)
≈ marks a conversion by molar mass, not a printed value.

Columns and labels:
Escherichia coli P-140a = assay: MIC by agar dilution method; format: cell-based; conditions: P140A, read-out: minimum inhibitory concentration (MIC)
[1] = tested on: Salmonella enteritidis No. 1891; assay: MIC by agar dilution method; format: cell-based; conditions: Salmonella enterica, read-out: minimum inhibitory concentration (MIC)
[2] = tested on: Streptococcus faecalis P-2473; assay: MIC by agar dilution method; format: cell-based; conditions: Enterococcus faecalis, P2473, read-out: minimum inhibitory concentration (MIC)
[3] = tested on: Pseudomonas aeruginosa No. 12; assay: MIC by agar dilution method; format: cell-based; conditions: read-out: minimum inhibitory concentration (MIC)
[4] = tested on: Staphylococcus aureus No. 50774; assay: In vivo therapeutic efficacy against systemic infections in mice; conditions: NO.50774, 336 h, po, twice, about 5 minutes and 6 hours after intravenous infection, male ddY mice, observed 14 days, read-out: median effective dose (ED50)
Source text: (§1) Compound 1 of this invention obtained by the procedure described in Example 1 and compounds A and B were each suspended in a 0.2% aqueous solution of sodium carboxymethylcellulose. Each of the solutions was orally administered to mice infected with each of the test organisms under the conditions described below, and the median effective doses (ED50; mg/kg) obtained are shown in Table II. Male mice (ddY) weighing about 20 g (1) Staphylococcus aureus No. 50774: Intravenous infection with about 5×10^8 cells per mouse suspended in saline. […] Exp. Path. Pharm., 162, 480 (1931)].

[5] = tested on: Pseudomonas aeruginosa No. 12; assay: as above; conditions: po, twice, about 5 minutes and 6 hours after intraperitoneal infection, male ddY mice, read-out: median effective dose (ED50)
Source text: as §1, with “(4) Pseudomonas aeruginosa” for “(1) Staphylococcus aureus”, “12: Intraperitoneal” for “50774: Intravenous”, “4×10^3” for “5×10^8”, “trypto-soy broth with 4% mucin.” for “saline.”

[6] = tested on: Escherichia coli NIHJ JC-2; assay: MIC by agar dilution method; format: cell-based; conditions: NIHJJC2, read-out: minimum inhibitory concentration (MIC)
[7] = tested on: Shigella flexneri 4a P-330; assay: MIC by agar dilution method; format: cell-based; conditions: 4AP330, read-out: minimum inhibitory concentration (MIC)
Method: (§2) The minimum inhibitory concentrations (MIC: μg/ml) of the following compounds were measured by the agar dilution method according to the procedure described in Chemotherapy, Vol. 22, No. 16, page 1126 (1974).

[8] = tested on: Serratia marcescens IFO 3736; assay: MIC by agar dilution method; format: cell-based; conditions: IFO3736, read-out: minimum inhibitory concentration (MIC)
Method: as §2

[9] = tested on: Klebsiella pneumoniae No. 13; assay: MIC by agar dilution method; format: cell-based; conditions: read-out: minimum inhibitory concentration (MIC)
Method: as §2

[10] = tested on: Staphylococcus aureus 209P JC-1; assay: MIC by agar dilution method; format: cell-based; conditions: Gram-positive bacteria, read-out: minimum inhibitory concentration (MIC)
Method: as §2

Shigella flexneri 2a = assay: MIC by agar dilution method; format: cell-based; conditions: read-out: minimum inhibitory concentration (MIC)
Method: as §2

Proteus morganii Kono = assay: MIC by agar dilution method; format: cell-based; conditions: Morganella morganii, read-out: minimum inhibitory concentration (MIC)
Method: as §2

Proteus mirabilis P-2381 = assay: MIC by agar dilution method; format: cell-based; conditions: P2381, read-out: minimum inhibitory concentration (MIC)
Method: as §2

Escherichia coli P-5101 [11] = assay: In vivo therapeutic efficacy against systemic infections in mice; conditions: P5101, 168 h, po, twice, about 5 minutes and 6 hours after intraperitoneal infection, male ddY mice, observed 7 days, read-out: median effective dose (ED50)
Source text: as §1, with “(3) Escherichia coli P-5101: Intraperitoneal” for “(1) Staphylococcus aureus No. 50774: Intravenous”, “9×10^6” for “5×10^8”, “trypto-soy broth with 4% mucin.” for “saline.”

[12] = tested on: Enterobacter cloacae P-2540; assay: MIC by agar dilution method; format: cell-based; conditions: P2540, read-out: minimum inhibitory concentration (MIC)
[13] = tested on: Streptococcus pyogenes A65; assay: In vivo therapeutic efficacy against systemic infections in mice; conditions: po, twice, about 5 minutes and 6 hours after intraperitoneal infection, male ddY mice, read-out: median effective dose (ED50)
Source text: as §1, with “(2) Streptococcus pyogenes […] Intraperitoneal” for “(1) Staphylococcus aureus No. 50774: Intravenous”, “3×10^7” for “5×10^8”, “brain-heart infusion broth.” for “saline.”

[14] = tested on: Corynebacterium pyogenes C-21; assay: MIC by agar dilution method; format: cell-based; conditions: Trueperella pyogenes, C21, read-out: minimum inhibitory concentration (MIC)
[15] = tested on: Streptococcus pyogenes A65; assay: MIC by agar dilution method; format: cell-based; conditions: read-out: minimum inhibitory concentration (MIC)
[16] = tested on: Pseudomonas aeruginosa Tsuchijima; assay: MIC by agar dilution method; format: cell-based; conditions: read-out: minimum inhibitory concentration (MIC)
[17] = tested on: Salmonella typhimurium S-9; assay: MIC by agar dilution method; format: cell-based; conditions: Salmonella enterica, read-out: minimum inhibitory concentration (MIC)
[18] = Acute oral toxicity in mice; conditions: mouse, in vivo, male ddY mice, deaths counted after 7 days, Behrens-Kaerber method, read-out: median lethal dose (LD50)
Method: A suspension containing each of compound 1 of the invention and compound A in various concentrations was orally given to male mice (ddY) at a volume of 0.1 ml per 10 g of body weight.

Escherichia coli P-5101 [19] = assay: MIC by agar dilution method; format: cell-based; conditions: P5101, read-out: minimum inhibitory concentration (MIC)
[20] = tested on: Staphylococcus aureus No. 50774; assay: MIC by agar dilution method; format: cell-based; conditions: Gram-positive bacteria, read-out: minimum inhibitory concentration (MIC)

Structure (SMILES)	MIC (Escherichia coli P-140a)	MIC [1]	MIC [2]	MIC [3]	ED50 [4]	ED50 [5]	MIC [6]	MIC [7]	MIC [8]	MIC [9]	MIC [10]	MIC (Shigella flexneri 2a)	MIC (Proteus morganii Kono)	MIC (Proteus mirabilis P-2381)	ED50 (Escherichia coli P-5101 [11])	MIC [12]	ED50 [13]	MIC [14]	MIC [15]	MIC [16]	other results
CN1CCN(c2nc3c(cc2F)c(=O)c(C(=O)O)cn3CCF)CC1 [Compound 1, 6-Fluoro-1-(2-fluoroethyl)-1,4-dihydro-7-(4-methyl-1-piperazinyl)-4-oxo-1,8-naphthyridine-3-carboxylic acid]	0.1 mg/L (≈ 0.284 µM)	0.1 mg/L (≈ 0.284 µM)	12.5 mg/L (≈ 35.5 µM)	1.56 mg/L (≈ 4.43 µM)	1.4 mg/kg	4.2 mg/kg	0.2 mg/L (≈ 0.568 µM)	0.1 mg/L (≈ 0.284 µM)	1.56 mg/L (≈ 4.43 µM)	0.39 mg/L (≈ 1.11 µM)	0.78 mg/L (≈ 2.21 µM)	0.39 mg/L (≈ 1.11 µM)	0.39 mg/L (≈ 1.11 µM)	0.78 mg/L (≈ 2.21 µM)	0.52 mg/kg	0.2 mg/L (≈ 0.568 µM)	14.9 mg/kg	6.25 mg/L (≈ 17.7 µM)	12.5 mg/L (≈ 35.5 µM)	3.13 mg/L (≈ 8.88 µM)	MIC [17]: 0.2 mg/L (≈ 0.568 µM); LD50 at 168 h [18]: > 1800 mg/kg; MIC (Escherichia coli P-5101 [19]): 0.1 mg/L (≈ 0.284 µM); MIC [20]: 0.39 mg/L (≈ 1.11 µM)
CCn1cc(C(=O)O)c(=O)c2cc(F)c(N3CCN(C)CC3)nc21 [Compound A, 1-Ethyl-6-fluoro-1,4-dihydro-7-(4-methyl-1-piperazinyl)-4-oxo-1,8-naphthyridine-3-carboxylic acid]	0.39 mg/L (≈ 1.17 µM)	0.1 mg/L (≈ 0.299 µM)					0.39 mg/L (≈ 1.17 µM)	0.78 mg/L (≈ 2.33 µM)	1.56 mg/L (≈ 4.67 µM)			0.39 mg/L (≈ 1.17 µM)	0.78 mg/L (≈ 2.33 µM)	3.13 mg/L (≈ 9.36 µM)			> 50 mg/kg	6.25 mg/L (≈ 18.7 µM)	6.25 mg/L (≈ 18.7 µM)		
O=C(O)c1cn(CCF)c2nc(N3CCNCC3)c(F)cc2c1=O [Compound B, 6-Fluoro-1-(2-fluoroethyl)-1,4-dihydro-4-oxo-7-(1-piperazinyl)-1,8-naphthyridine-3-carboxylic acid]	0.1 mg/L (≈ 0.296 µM)	0.1 mg/L (≈ 0.296 µM)	12.5 mg/L (≈ 36.9 µM)	0.78 mg/L (≈ 2.31 µM)	11.5 mg/kg	27.2 mg/kg	0.2 mg/L (≈ 0.591 µM)	0.1 mg/L (≈ 0.296 µM)	0.39 mg/L (≈ 1.15 µM)	0.78 mg/L (≈ 2.31 µM)	0.39 mg/L (≈ 1.15 µM)	0.2 mg/L (≈ 0.591 µM)	0.2 mg/L (≈ 0.591 µM)	0.39 mg/L (≈ 1.15 µM)	3 mg/kg	0.1 mg/L (≈ 0.296 µM)	50 mg/kg	1.56 mg/L (≈ 4.61 µM)	12.5 mg/L (≈ 36.9 µM)	0.78 mg/L (≈ 2.31 µM)	MIC [17]: 0.1 mg/L (≈ 0.296 µM); MIC (Escherichia coli P-5101 [19]): 0.1 mg/L (≈ 0.296 µM); MIC [20]: 1.56 mg/L (≈ 4.61 µM)
